Measured values from patent US20120022070A1, “Heat Shock Protein 90 Inhibitors, Methods Of Preparing Same, And Methods For Their Use” (EMORY UNIVERSITY, priority 2008, published 2012).
Like-named read-outs stand apart in the source and are kept apart here.

Key:
[1] = test system: Her2 protein in MCF-7 breast cancer cells; experiment: Cell-based Her2 degradation assay by Western Blot; conditions: Homo sapiens
From the text: Addition of Hsp90 inhibitors to cancer cells induces the proteasomal degradation of a subset of proteins involved in signal transduction such as Raf1 kinase, Akt and certain transmembrane tyrosine kinases such as Her2. Thus, Her2 degradation in cells is a functional read-out of Hsp90 inhibition. Correlation between Hsp90 binding and Her2 degradation in cancer cells is indicative of a selective biological effect in these cells via Hsp90.
A Western blot-based assay was used to measure the cellular level of Her2 protein in MCF-7 breast cancer cell lysates collected after 24 hours of compound treatment. […] Then 2×10^5 cells were seeded in 24 well plates in 500 μl PRMI1640 medium and allowed to attach overnight. The compounds were dissolved in DMSO, added to the wells, and incubated for 24 hours. The cells were washed using ice-cold phosphate-buffered saline (PBS) and lysed in 1% NP40 lysis buffer (10 mM HEPES, pH 7.4, 150 mM NaCl, 1% Nonident P-40, 5 mM Pyrophosphate, 5 mM NaF, 2 mM Orthovanadate, 10 ug/ml Aprotinin, 10 ug/ml Leupeptin, 1 mM PMSF). After boiling with 6×SDS sample buffer, the cell lysates were separated by SDS-PAGE and transferred to nitrocellulose membrane. The membranes were blocked with 5% milk in tris-buffered saline buffer.

[2] = test system: tumor specific Hsp90 (NCI-N417 cell lysate); experiment: Hsp90 binding FP competition assay; design: species or system human
From the text: There are several assays that have been developed to identify novel Hsp90 inhibitors based on the interaction of small molecules with recombinant Hsp90 protein, either yeast or human. To measure a therapeutically significant state of Hsp90, an FP assay that uses human cancer cell lysates instead of recombinant protein (Du, Moulick et al. J. Biomol. Screen, 2007, 12, 915-24) was utilized. It probes the interaction of small molecules with tumor-specific Hsp90 and may therefore lead to inhibitors that are not only selective for cancer cells but also specific for a particular malignancy.
The dose-response effect of the compounds was tested in Hsp90 binding FP competition assays to obtain the IC50 of the compounds. The Hsp90 FP competition assay was performed in 384-well black plate using the small-cell lung carcinoma (SCLC) cell line NCI-N417 as a source of tumor specific Hsp90 and the Cy3B-labeled geldanamycin (GM-cy3B) as the FP ligand. The compound was dissolved in DMSO and added at several concentrations to the reaction buffer containing both GM-cy3B (5 nM) and NCI-N417 cell lysate (1 μg/well) in a final volume of 50 μL. Free GM-cy3B (5 nM) and bound GM-cy3B with NCI-N417 cell lysate (5 nM GM-cy3B and 1 μg/well of NCI-N417 cell lysate) were included as controls in each plate. After incubating at room temperature for 2 to 16 hours, the polarization values were measured and expressed as millipolarization (mP) units using Analyst HT plate reader (Molecular Devices). The competitive efficiency of the compounds were expressed as a percentage of control and calculated according to the following equation:
% of control=((mPc−mPf)/(mPb−mPf))×100
where mPc is the recorded mP from compound wells, mPf is the average recorded mP from GM-cy3B-only wells, and mPb is the average recorded mP from wells containing both GM-cy3B and NCI-N417 lysate. IC50 values were determined using a nonlinear regression analysis as implemented in Prism 4.0 (Graphpad Software).

[3] = test system: Her2 protein in SKBr3 breast cancer cells; experiment: Cell-based Her2 degradation assay by Cytoblot; conditions: Homo sapiens, SK-BR-3, Table 2, values with asterisk, 24 hours
Description: Cellular Her2 level after compound treatment was also monitored by microtiter-based Her2 degradation assay, Cytoblot assay (Huezo, Vilenchik et al. Chem. Biol., 2003, 10, 629-634). This is a cell-based assay that enables the quantitative analysis of intracellular levels of Her2 protein.
The human breast cancer cell lines SKBr3 were maintained in RPMI1640 medium supplemented with 10% FBS. 3000 cells in 100 μl of growth medium were plated per well in black, clear-bottom microtiter plates (Corning) and allowed to attach for at least 24 hours at 37° C. and 5% CO2. Compounds at different doses or vehicle (DMSO) were carefully added to the wells and incubated for 24 hours. The cells were washed twice with ice-cold Tris buffer saline (TBS) containing 0.1% Tween 20 (TBST) and fixed with ice-cold methanol. After washing with TBST, the plate was incubated at RT for 1 hour with SuperBlock (Pierce 37535) and overnight at 4° C. with the anti-Her-2 antibody (Santa Cruz Biotechnology). The plate was then washed with TBST and incubated at RT for 2 hours with an anti-rabbit HRP-linked antibody (Sigma A0545). The chemiluminescent substrate solution (Pierce 38040) was added and the plate was read 5 minutes later in an Analyst HT plate reader (Molecular Devices). Luminescence readings resulting from compound-treated cells versus untreated cells (vehicle treated) were quantified and plotted against compound concentrations to give the IC50 values (defined as concentration of compound required to degrade 50% of total Her2).

[4] = test system: SKBR3 breast cancer cells; experiment: Cancer cell growth inhibition assay (CellTiter-Blue); assay type: cell-based; conditions: Homo sapiens, SK-BR-3, Table 2, 96 hours
Description: The effects of the compounds on cancer cell growth were determined using the CellTiter-Blue cell viability assay (Promega). CellTiter-Blue® Cell Viability is based on the ability of living cells to convert a redox dye (resazurin) into a fluorescent end product (resorufin).
The SKBR3 breast cancer cells were plated in 384-well microtiter plates (Costar) and allowed to attach overnight. After treatment with either compounds or vehicle (DMSO) for 96 hours, the cells were measured for their viability by CellTiter-Blue. Briefly, 10 μl of CelTiter-Blue were added to each well in 384-well plates and incubated at 37° C. for 4 hours. The fluorescence intensity (FI) was measured using the Analyst HT plate reader (Molecular Devices) with an excitation at 545 nm and emission at 595 nm. The IC50 was calculated as the compound concentration that inhibits cell viability by 50% compared with vehicle control wells. The IC50 values were determined as described above.

[5] = MCF7, Table 1, MCF-7 cells, 24 hours of compound treatment, read-out: Her2 degradation WB IC50
[6] = MCF7, 24 h, read-out: Her2 degradation WB IC50

Compound | IC50 [1, 5] [µM] | IC50 [1, 6] [µM] | IC50 ([2]; Table 1, GM-cy3B 5 nM) [µM] | further results
CN(C)C1=C(Cl)C(=O)C(=O)c2cccnc21 [Compound 5] | > 20 |  |  | 
O=C1C=C(N2CCOCC2)c2ccccc2C1=O [Compound 23] |  | ~10 | 0.63 | 
Cc1cc(Br)ccc1NC1=CC(=O)C(=O)c2ccccc21 [Compound 35] | > 30 |  | 3 | 
O=C1C=C(Nc2ccccc2)c2ncccc2C1=O [Compound 1] | ~2.5 |  |  | 
Cc1ccc(NC2=CC(=O)C(=O)c3ccccc32)cc1 [Compound 15] |  | ~10 | 0.96 | 
O=C1C=C(Nc2cc(Cl)ccc2Cl)c2ccccc2C1=O [Compound 33] | > 30 |  | 3.06 | 
CC(N)CCCNC1=CC(=O)C(=O)c2cccnc21 (stereo not shown) [Compound 11] | 2.5 to 5 |  |  | 
COc1cccc(NC2=CC(=O)C(=O)c3ccccc32)c1 [Compound 42] | ~10 |  | 0.81 | 
O=C1C=C(N2CCNCC2)c2ccccc2C1=O [Compound 62] |  |  |  | IC50 [3]: 22.7 µM; IC50 [4]: > 20 µM; IC50 ([2]; Table 2, GM-cy3B 5 nM): 1.55 µM
Cc1ccc(C)c(NC2=CC(=O)C(=O)c3ccccc32)c1 [Compound 25] |  | > 30 | 1.59 | 
O=C1C=C(Nc2ccc(O)cc2)c2ccccc2C1=O [Compound 43] |  | ~10 | < 0.39 | 
O=C1C=C(N2CCN(Cc3cccc4ccccc34)CC2)c2ccccc2C1=O [Compound 59] |  |  |  | IC50 [3]: 4.27 µM; IC50 [4]: 0.62 µM; IC50 ([2]; Table 2, GM-cy3B 5 nM): 0.77 µM
CCCCCCN(CCCCCC)C1=CC(=O)C(=O)c2ccccc21 [Compound 38] | ~30 |  | 2.6 | 
O=C1C=C(Nc2ncccn2)c2ccccc2C1=O [Compound 14] | 1 to 10 |  | 0.45 | 
O=C1C=C(N2CCN(c3cccc4ccccc34)CC2)c2ccccc2C1=O [Compound 57] |  |  |  | IC50 [3]: 3.9 µM; IC50 [4]: 0.22 µM; IC50 ([2]; Table 2, GM-cy3B 5 nM): 0.89 µM
Cc1cccc(NC2=CC(=O)C(=O)c3ccccc32)c1 [Compound 41] |  | ≥ 10 | 1.06 | 
NC1=CC(=O)C(=O)c2cccnc21 [Compound 4] | > 20 |  |  | 
O=C1C=C(Nc2cccc(C(=O)O)c2)c2ccccc2C1=O [Compound 30] | > 30 |  | 1.33 | 
NC1=CC(=O)C(=O)c2ccccc21 [Compound 31] | 10 to 30 |  | 2.18 | 
CCN(CC)C1=C(Cl)C(=O)C(=O)c2cccnc21 [Compound 6] | > 20 |  |  | 
Cc1ccnc(NC2=CC(=O)C(=O)c3ccccc32)c1 [Compound 12] | ~10 |  | < 0.39 | 
Cc1ccc(NC2=CC(=O)C(=O)c3ccccc32)c(C)c1 [Compound 13] |  | < 5 | 1.85 | 
CN(C1=CC(=O)C(=O)c2ccccc21)c1ccccc1 [Compound 18] |  | ~10 | 0.39 | 
CC(C)(C)OC(=O)N1CCN(C2=CC(=O)C(=O)c3ccccc32)CC1 [Compound 46] | 5 to 10 |  | 0.22 | 
Cc1ccc(NC2=CC(=O)C(=O)c3ccccc32)cc1C [Compound 29] | < 10 |  | 1.07 | 

Compound | IC50 [1, 5] [µM] | IC50 [1, 6] [µM] | IC50 ([2]; Table 1, GM-cy3B 5 nM) [µM] | further results
Cc1ccc(NC2=CC(=O)C(=O)c3ccccc32)c(C(=O)O)c1 [Compound 68] |  |  |  | IC50 ([1]; MCF7, Table 2, values without asterisk, MCF-7 cells, 24 hours, read-out: IC50, Her2 degradation WB): > 30 µM; IC50 [4]: > 20 µM
C=CCN(CC=C)C1=CC(=O)C(=O)c2ccccc21 [Compound 24] | ~10 |  | 2.19 | 
O=C1C(=O)c2cccnc2C(NC2CC3CCC2C3)=C1Cl (stereo not shown) [Compound 2] | ~2.5 |  |  | 
O=C1C=C(Nc2ccccc2)c2ccccc2C1=O [Compound 32] |  | < 30 | 7.4 | 
O=C1C=C(Nc2ccc(Cl)cc2Cl)c2ccccc2C1=O [Compound 37] |  | ~30 | 4.7 | 
O=C1C=C(NCCc2ccccc2)c2ccccc2C1=O [Compound 17] | ~10 |  | 4 | 
O=C1C=C(Nc2cccc(Cl)c2)c2ccccc2C1=O [Compound 28] |  | > 30 |  | 
Cc1cccc(C)c1NC1=CC(=O)C(=O)c2ccccc21 [Compound 26] |  | > 10 | 3.9 | 
NC(=O)C(=O)CC(=O)c1ccccc1NC1=CC(=O)C(=O)c2ccccc21 [Compound 39] | > 30 |  | 4.2 | 
O=C1C=C(Nc2cccc(O)c2)c2ccccc2C1=O [Compound 20] | ~10 |  | 0.6 | 
O=C1C=C(Nc2cccnc2)c2ccccc2C1=O [Compound 16] | ~10 |  | 0.67 | 
O=C1C=C(Nc2ccc(Cl)cc2)c2ccccc2C1=O [Compound 19] |  | < 10 | 0.68 | 
CCc1cccc(CC)c1NC1=CC(=O)C(=O)c2ccccc21 [Compound 34] |  | > 30 | 3.55 | 
N#CCCCCNC1=CC(=O)C(=O)c2cccnc21 [Compound 10] | ~10 |  |  | 
CCN(CC)C1=CC(=O)C(=O)c2ccccc21 [Compound 48] |  | 5 to 10 | 0.69 | 
CC(C)c1cccc(C(C)C)c1NC1=CC(=O)C(=O)c2ccccc21 [Compound 44] | > 30 |  | 1.73 | 
O=C1C=C(Nc2cccc(Br)c2)c2ccccc2C1=O [Compound 27] | > 30 |  |  | 
COc1ccc(NC2=CC(=O)C(=O)c3ccccc32)c([N+](=O)[O-])c1 [Compound 52] | > 10 |  | 0.23 | 
CN1CCN(C2=CC(=O)C(=O)c3ccccc32)CC1 [Compound 47] | 5 to 10 |  | 0.39 | 
CCOc1ccc(NC2=CC(=O)C(=O)c3ccccc32)cc1 [Compound 21] | ~10 |  | 1 | 
O=C1C=C(NCCCCC2CCCCC2)c2ccccc2C1=O [Compound 22] | > 30 |  |  | FP Assay IC50 ([2]; Table 1, GM-cy3B 5 nM): inactive
O=C1C(=O)c2cccnc2C(NCc2ccccc2)=C1Cl [Compound 3] | ~2.5 |  |  | 
O=C1C=C(Nc2ccccc2C(=O)CC(=O)C(=O)Nc2ccc(Cl)c(Cl)c2)c2ccccc2C1=O [Compound 40] | > 30 |  | 10.5 | 
O=C1C=C(Nc2ccc(Br)cc2)c2ccccc2C1=O [Compound 36] |  | ~30 | 1.4 | 
